{"source": "ChEMBL document CHEMBL6177959", "about": "“Design, synthesis and evaluation of novel carboline-triazole hybrids as promising antimalarial agents” (Eur J Med Chem, 2025)", "key": {"Plasmodium falciparum [1]": {"test_system": "Plasmodium falciparum", "assay": "Antimalarial activity against Plasmodium falciparum W2", "assay_type": "functional, organism-based"}, "Plasmodium falciparum [2]": {"test_system": "Plasmodium falciparum", "assay": "Antimalarial activity against Plasmodium falciparum 3D7", "assay_type": "functional, organism-based"}, "[3]": {"assay": "Stability of the compound in simulated physiological fluid at pH 7.4 assessed as compound remaining measured after 120 mins by HPLC analysis relative to control", "assay_type": "physicochemical", "conditions": "read-out: Stability"}, "Plasmodium falciparum [4]": {"test_system": "Plasmodium falciparum", "assay": "Induction of morphological changes in asexual blood stage Plasmodium falciparum assessed as appearance of healthy rings at 1 uM incubated for 48 to 72 hrs by Geimsa-staining based light microscopic analysis", "assay_type": "functional, organism-based", "conditions": "time 48-72 hrs"}, "Plasmodium falciparum [5]": {"test_system": "Plasmodium falciparum", "assay": "Antimalarial activity against […] infected in human erythrocytes assessed as inhibition of parasitic growth at 5 uM incubated for 72 hrs by SYBR green dye fluorimetric assay relative to control", "assay_type": "functional, K1, Erythrocyte", "set-up": "scale not given: the % may be the effect or the level left"}, "Plasmodium yoelii [6]": {"test_system": "Plasmodium yoelii", "assay": "Antimalarial activity against Plasmodium yoelii N67 infected in female Swiss mouse model assessed as inhibition of parasitic growth at 100 mg/kg, po measured on day 10 relative to control", "assay_type": "functional", "set-up": "scale not given: the % may be the effect or the level left", "conditions": "time 10 day"}, "Plasmodium berghei": {"test_system": "Plasmodium berghei", "assay": "Antimalarial activity against GFP-luciferase expressing liver stage Plasmodium berghei sporozoites infected in human HepG2 cells assessed as inhibition of parasitic growth by luminescence based analysis", "assay_type": "functional, organism-based"}, "Plasmodium yoelii [7]": {"test_system": "Plasmodium yoelii", "assay": "Antimalarial activity against Plasmodium yoelii N67 infected in female Swiss mouse model assessed as reduction in parasitic growth at 100 mg/kg, po administered for 3 days and measured on day 28 by Giemsa staining based analysis", "assay_type": "functional, organism-based", "conditions": "time 28.0 day"}, "[8]": {"assay": "Tmax in male Swiss mouse at 100 mg/kg, po by LC-MS/MS analysis", "assay_type": "ADME, organism-based", "conditions": "in vivo"}, "Plasmodium falciparum [9]": {"test_system": "Plasmodium falciparum", "assay": "Induction of morphological changes in asexual blood stage Plasmodium falciparum assessed as appearance of fragmentation at 1 uM incubated for 24 hrs by Geimsa-staining based light microscopic analysis", "assay_type": "functional, organism-based"}, "Plasmodium yoelii [10]": {"test_system": "Plasmodium yoelii", "assay": "Antimalarial activity against Plasmodium yoelii N67 infected in female Swiss mouse model assessed as inhibition of parasitic growth at 100 mg/kg, po administered for 4 days and measured on day 28 by Giemsa staining based analysis", "assay_type": "functional, organism-based", "conditions": "time 4.0 day"}, "[11]": {"assay": "Clearance in male Swiss mouse at 100 mg/kg, po by LC-MS/MS analysis", "assay_type": "ADME, organism-based", "conditions": "in vivo"}, "[12]": {"assay": "Cmax in male Swiss mouse at 100 mg/kg, po by LC-MS/MS analysis", "assay_type": "ADME, organism-based", "conditions": "in vivo"}, "Plasmodium falciparum [13]": {"test_system": "Plasmodium falciparum", "assay": "Antimalarial activity against chloroquine-sensitive Plasmodium falciparum 3D7 infected in human erythrocytes assessed as reduction in parasite growth incubated for 72 hrs by SYBR green dye fluorimetric assay", "assay_type": "functional, organism-based", "conditions": "3D7, Erythrocyte"}, "[14]": {"assay": "Selectivity index, ratio of CC50 for cytotoxicity against human HepG2 cells to IC50 for antimalarial activity against chloroquine-sensitive Plasmodium falciparum 3D7 infected in human erythrocytes assessed as reduction in parasite growth incubated for 72 hrs by SYBR green dye fluorimetric assay", "assay_type": "toxicity, cell-based", "conditions": "read-out: Ratio CC50/IC50"}, "Plasmodium falciparum [15]": {"test_system": "Plasmodium falciparum", "assay": "Induction of morphological changes in asexual blood stage Plasmodium falciparum assessed as appearance of schizonts at 1 uM incubated for 48 to 72 hrs by Geimsa-staining based light microscopic analysis", "assay_type": "functional, organism-based", "conditions": "time 48-72 hrs"}, "[16]": {"assay": "Resistance index, ratio of IC50 for antimalarial activity against […] infected in human erythrocytes to IC50 for antimalarial activity against chloroquine-sensitive Plasmodium falciparum 3D7 infected in erythrocytes", "assay_type": "functional"}, "[17]": {"assay": "Volume of distribution in male Swiss mouse at 100 mg/kg, po by LC-MS/MS analysis", "assay_type": "ADME, organism-based", "conditions": "in vivo"}, "Plasmodium falciparum [18]": {"test_system": "Plasmodium falciparum", "assay": "Induction of morphological changes in asexual blood stage Plasmodium falciparum assessed as appearance of compact structure at 1 uM incubated for 24 hrs by Geimsa-staining based light microscopic analysis", "assay_type": "functional, organism-based"}, "Plasmodium yoelii [19]": {"test_system": "Plasmodium yoelii", "assay": "Antimalarial activity against Plasmodium yoelii N67 infected in female Swiss mouse model assessed as mean survival time at 100 mg/kg administered orally (reference value: 11 days)", "assay_type": "functional", "conditions": "route po"}, "Plasmodium yoelii [20]": {"test_system": "Plasmodium yoelii", "assay": "Antimalarial activity against Plasmodium yoelii N67 infected in female Swiss mouse model assessed as mean survival time at 100 mg/kg, po measured on day 17 relative to control", "assay_type": "functional", "conditions": "N67, 408 h, time 17 day"}, "[21]": {"assay": "Stability of the compound in simulated intestinal fluid at pH 6.8 assessed as compound remaining measured after 120 mins by HPLC analysis relative to control", "assay_type": "physicochemical", "conditions": "read-out: Stability"}, "[22]": {"assay": "Half life in male Swiss mouse at 100 mg/kg, po by LC-MS/MS analysis", "assay_type": "ADME, organism-based", "conditions": "in vivo"}, "Plasmodium yoelii [23]": {"test_system": "Plasmodium yoelii", "assay": "Antimalarial activity against Plasmodium yoelii N67 infected in female Swiss mouse model assessed as inhibition of parasitic growth at 100 mg/kg, po measured on day 7 relative to control", "assay_type": "functional", "set-up": "scale not given: the % may be the effect or the level left", "conditions": "time 7 day"}, "[24]": {"assay": "Cytotoxicity against human HepG2 cells", "assay_type": "toxicity, cell-based"}, "[25]": {"assay": "AUC in male Swiss mouse at 100 mg/kg, po by LC-MS/MS analysis", "assay_type": "ADME, organism-based", "conditions": "in vivo"}, "Plasmodium yoelii [26]": {"test_system": "Plasmodium yoelii", "assay": "Antimalarial activity against Plasmodium yoelii N67 infected in female Swiss mouse model assessed as mean survival time at 100 mg/kg, po measured on day 24 relative to control", "assay_type": "functional", "conditions": "N67, 576 h, time 24 day"}, "Plasmodium falciparum [27]": {"test_system": "Plasmodium falciparum", "assay": "Induction of morphological changes in asexual blood stage Plasmodium falciparum assessed as lack of prominent periphery in trophozoites at 1 uM incubated for 24 hrs by Geimsa-staining based light microscopic analysis", "assay_type": "functional, organism-based"}, "Plasmodium falciparum [28]": {"test_system": "Plasmodium falciparum", "assay": "Induction of morphological changes in asexual blood stage Plasmodium falciparum assessed as appearance of condensed cytoplasm at 1 uM incubated for 24 hrs by Geimsa-staining based light microscopic analysis", "assay_type": "functional, organism-based"}, "Plasmodium falciparum [29]": {"test_system": "Plasmodium falciparum", "assay": "Antimalarial activity against […] infected in human erythrocytes assessed as reduction in parasite growth incubated for 72 hrs by SYBR green dye fluorimetric assay", "assay_type": "functional, organism-based", "conditions": "K1, Erythrocyte"}, "[30]": {"assay": "Stability of the compound in mouse plasma assessed as compound remaining measured after 120 mins by HPLC analysis relative to control", "assay_type": "ADME, cell-free", "conditions": "read-out: Stability"}, "[31]": {"assay": "MRT in male Swiss mouse at 100 mg/kg, po by LC-MS/MS analysis", "assay_type": "ADME, organism-based", "conditions": "in vivo"}}, "note": "pIC50: −log10 of the molar value. The source made the active and inactive calls. No cut-off for these calls is given here.", "data": [{"smiles": "COc1cc(-c2nccc3c2[nH]c2ccccc23)cc(OC)c1OC", "values": [{"measurement": "pIC50", "setting": "Plasmodium falciparum [1]", "result": 6.29}]}, {"smiles": "Clc1ccc(-n2cc(-c3cncc4ccccc34)nn2)cc1", "values": [{"measurement": "pIC50", "setting": "Plasmodium falciparum [2]", "result": 4.43}]}, {"smiles": "O=C(NCc1cn(-c2cccc(C(F)(F)F)c2)nn1)c1cc2c([nH]c3ccccc32)c(-c2ccc(F)cc2)n1", "values": [{"measurement": "remaining at 2 h", "setting": "[3]", "result": "≥ 60", "unit": "%"}, {"measurement": "Activity", "setting": "Plasmodium falciparum [4]", "result": "inactive"}, {"measurement": "Activity", "setting": "Plasmodium falciparum [5]", "result": 95.63, "unit": "%"}, {"measurement": "Activity", "setting": "Plasmodium yoelii [6]", "result": 35.93, "unit": "%"}, {"measurement": "pIC50", "setting": "Plasmodium berghei", "result": 5.23}, {"measurement": "Activity", "setting": "Plasmodium yoelii [7]", "result": "Active"}, {"measurement": "Tmax", "setting": "[8]", "result": 4, "unit": "h"}, {"measurement": "Activity", "setting": "Plasmodium falciparum [9]", "result": "Active; Irreversible Structural Deformations Observed"}, {"measurement": "Activity", "setting": "Plasmodium yoelii [10]", "result": "Moderate_effect"}, {"measurement": "CL", "setting": "[11]", "result": 15.324, "unit": "mL/min/kg"}, {"measurement": "Cmax", "setting": "[12]", "result": 15.17, "unit": "ng/mL"}, {"measurement": "pIC50", "setting": "Plasmodium falciparum [13]", "result": 6.08}, {"measurement": "selectivity ratio at 72 h", "setting": "[14]", "result": 232}, {"measurement": "Activity", "setting": "Plasmodium falciparum [15]", "result": "inactive"}, {"measurement": "Ratio IC50", "setting": "[16]", "result": 0.48}, {"measurement": "Vd", "setting": "[17]", "result": 4.97207, "unit": "L/kg"}, {"measurement": "Activity", "setting": "Plasmodium falciparum [18]", "result": "Active; Irreversible Structural Deformations Observed"}, {"measurement": "MST", "setting": "Plasmodium yoelii [19]", "result": 17, "unit": "days"}, {"measurement": "survival at 100 mg/kg", "setting": "Plasmodium yoelii [20]", "result": 60, "unit": "%"}, {"measurement": "remaining at 2 h", "setting": "[21]", "result": "≥ 60", "unit": "%"}, {"measurement": "t1/2", "setting": "[22]", "result": 3.74, "unit": "h"}, {"measurement": "Activity", "setting": "Plasmodium yoelii [23]", "result": 42.55, "unit": "%"}, {"measurement": "CC50", "setting": "[24]", "result": 195, "unit": "µM"}, {"measurement": "AUC", "setting": "[25]", "result": 112, "unit": "µg·h/mL"}, {"measurement": "survival at 100 mg/kg", "setting": "Plasmodium yoelii [26]", "result": 20, "unit": "%"}, {"measurement": "Activity", "setting": "Plasmodium falciparum [27]", "result": "Active; Irreversible Structural Deformations Observed"}, {"measurement": "Activity", "setting": "Plasmodium falciparum [28]", "result": "Active; Irreversible Structural Deformations Observed"}, {"measurement": "pIC50", "setting": "Plasmodium falciparum [29]", "result": 6.40}, {"measurement": "remaining at 2 h", "setting": "[30]", "result": "≥ 60", "unit": "%"}, {"measurement": "MRT", "setting": "[31]", "result": 7.3, "unit": "h"}]}]}
